# From PubChem BioAssay (NCI)
#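 Compound exposure: 48 hours, 5 concentrations, 96-well plates. GI50 = concentration required for 50% inhibition of growth. Definition used: TGI = concentration required for complete inhibition of growth.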
# Legend:
# Assay in all cases: DTP human tumour cell line panel, 48 h
# T-47D breast = test system: T-47D breast
# K-562 leukemia = test system: K-562 leukemia
# CCRF-CEM leukemia = test system: CCRF-CEM leukemia
# CAKI-1 renal = test system: CAKI-1 renal
# SK-MEL-2 melanoma = test system: SK-MEL-2 melanoma
# SNB-19 CNS = test system: SNB-19 CNS
# MOLT-4 leukemia = test system: MOLT-4 leukemia
# M19-MEL melanoma = test system: M19-MEL melanoma
# DMS 114 small cell lung = test system: DMS 114 small cell lung
# LXFL 529 NSCLC = test system: LXFL 529 NSCLC
# KM20L2 colon = test system: KM20L2 colon
# XF 498 CNS = test system: XF 498 CNS
# HOP-18 NSCLC = test system: HOP-18 NSCLC
Compound,TGI (T-47D breast) [µM],TGI (K-562 leukemia) [µM],TGI (CCRF-CEM leukemia) [µM],TGI (CAKI-1 renal) [µM],TGI (SK-MEL-2 melanoma) [µM],TGI (SNB-19 CNS) [µM],TGI (MOLT-4 leukemia) [µM],GI50 (CAKI-1 renal) [µM],GI50 (MOLT-4 leukemia) [µM],TGI (M19-MEL melanoma) [µM],TGI (DMS 114 small cell lung) [µM],TGI (LXFL 529 NSCLC) [µM],TGI (KM20L2 colon) [µM],TGI (XF 498 CNS) [µM],TGI (HOP-18 NSCLC) [µM],GI50 (T-47D breast) [µM],GI50 (K-562 leukemia) [µM],GI50 (CCRF-CEM leukemia) [µM],GI50 (SK-MEL-2 melanoma) [µM],GI50 (SNB-19 CNS) [µM]
CN(CCO)Cc1ncccc1O,> 100,> 100,> 100,> 100,> 100,> 100,89.5,–,–,–,–,–,–,–,–,–,–,–,–,–
c1cc(-c2ccc(-c3nc4ccc(C5=NCCN5)cc4s3)s2)ccc1C1=NCCN1,1.42,4,0.574,4.71,2.96,9.38,0.879,–,–,–,–,–,–,–,–,–,–,–,–,–
COC(=O)c1c(C)[nH]c2c1C(=O)C(=O)c1nc(C)c(C)nc1-2,9.55,> 100,35.7,> 100,16.3,27.4,95,–,–,–,–,–,–,–,–,–,–,–,–,–
CN1CC(c2ccccc2)C(O)(C2(c3ccccc3)CN(C)CC(c3ccccc3)C2=O)C(c2ccccc2)C1 (stereo not drawn),> 100,> 100,–,> 100,> 100,> 100,> 100,–,–,–,–,–,–,–,–,–,–,–,–,–
Clc1ccc(C2CC(c3cccc(Nc4ccncc4)c3)=NN2c2ccc(Cl)cc2)cc1 (stereo not drawn),–,–,–,2.79,–,–,5.52,1.46,2.18,–,–,–,–,–,–,–,–,–,–,–
CCc1c2cc(OC)c(OC)cc2cc2c3cc(OC)c(OC)cc3cc[n+]12 (tested in a mixture with another compound),> 67,> 45.6,> 100,> 73.4,87.1,82.1,> 100,–,–,> 92.7,63.1,> 76.3,> 100,33.6,> 100,–,–,–,–,–
O=C(O)CCO/N=C1/C(c2c(O)[nH]c3ccccc23)=Nc2ccccc21,72.6,> 100,40.3,63.8,37.7,> 100,77.2,–,–,–,–,–,–,–,–,–,–,–,–,–
CC[C@@]1(OC(=O)CN(C)C)C(=O)OCc2c1cc1n(c2=O)Cc2cc3c(N)cccc3nc2-1,0.868,> 100,0.025,0.0537,> 100,> 100,0.211,< 0.01,< 0.01,–,–,–,–,–,–,0.0253,0.0455,< 0.01,1.24,0.0252
OC(c1ccc(Cl)cc1)(c1ccc(Cl)cc1)c1cncnc1,> 100,69.8,54.1,36.2,32,48.8,52.3,–,–,–,–,–,–,–,–,–,–,–,–,–
CCCCN(CCCC)CCC(O)c1cc(-c2ccc(C(F)(F)F)cc2)nc(-c2ccc(C(F)(F)F)cc2)c1 (stereo not drawn),> 100,> 100,> 100,> 100,> 100,> 100,> 100,–,–,–,–,–,–,–,–,–,–,–,–,–
COc1ccc(C(=O)O[C@H]2CC[C@@]3(C)[C@@H]4CC[C@H]5[C@]6(O)C[C@H](O)[C@@]7(O)[C@@H](CN8C[C@@H](C)CC[C@H]8[C@@]7(C)O)[C@]6(O)C[C@@]53OC24O)cc1OC,> 100,> 100,–,> 100,> 100,> 100,> 100,–,–,–,–,–,–,–,–,–,–,–,–,–
CN(C)CCCNc1ccc2nnn3c4ccc(OC(=O)c5ccccc5)cc4c(=O)c1c23,37.5,4.49,7.98,10.7,32.9,25.4,9.41,–,–,–,–,–,–,–,–,–,–,–,–,–
O=S(=O)(O)c1cc(S(=O)(=O)O)c2cc(N=Nc3c(O)ccc4ccccc34)ccc2c1,> 100,> 100,> 100,> 100,> 100,> 100,> 100,–,–,–,–,–,–,–,–,–,–,–,–,–
CCOC(=O)Nc1sc2c(c1C#N)CC(C)CC2 (stereo not drawn),> 100,> 100,–,> 100,7.87,27,> 100,–,–,–,–,–,–,–,–,–,–,–,–,–
O=C1CCCC/C1=C1/SC(=Nc2ccccc2)C(=Nc2ccccc2)N1c1ccccc1,> 100,> 100,> 100,> 100,> 100,> 100,> 100,–,–,–,–,–,–,–,–,–,–,–,–,–
O=C(Nn1c(-c2cccs2)nc2ccc(I)cc2c1=O)c1ccccc1,37.6,> 100,> 100,51,69.4,64.5,> 100,–,–,–,–,–,–,–,–,11.1,43.8,38.5,24,–
